Source: patent publication US7345091B2, “Carotenoid ether analogs or derivatives for the inhibition and amelioration of disease” (Cardax Pharmaceuticals, Inc., priority 2002, dated 2008)
Where two headings read alike, the source gives them in different places.

Assays:
[1] = for behavior as radical quencher compared with non-esterified, free astaxanthin: formation of carotenoid radical cation
Excerpt: FIG. 27 and FIG. 28 depict the results of spectral analysis after flash photolysis of the formation of triplet and carotenoid cation radical states for non-esterified, free astaxanthin 2E and the diacid disuccinate astaxanthin derivative XV were obtained. Formation of the carotenoid cation radical is a measure of the potential biophysical behavior of the novel derivative as an antioxidant. If a derivative retains the antioxidant behavior of non-esterified, free astaxanthin, then all previously documented (i.e. literature precedent) therapeutic applications for astaxanthin can be reasonably assumed for the novel derivative, including at least singlet oxygen quenching, lipid peroxidation chain-breaking, and/or direct radical scavenging.
In this experiment, nitronaftalin (NN) was used as the photosensitizer. After irradiation, the excited sensitizer (NN*) forms a sensitizer triplet (^3NN). When ^3NN encounters a carotenoid, energy and electron transfer reactions with ^3NN take place. The resulting relatively stable ^3car and carotenoid cation radicals (car*^+) are detected by characteristic absorption bands. Non-polar solvents (e.g. hexane) favor the formation of ^3car, and more polar solvents (alcohols, water) favor the formation of the car.^+. The anion radical of the sensitizer (NN.^−) is not typically seen because of a low absorption coefficient.
The ^3car decays rather quickly. After 15 μs, half of the ^3car has disappeared, and after 50 μs, no ^3car is left.
The spectrum of asta 2E is nearly identical to that of astaCOOH XV. After 50 μs, the ^3car has disappeared. During this time frame, the car.^+ is stable. Negative and positive peaks in the absorption spectra for astaCOOH XV and asta 2E are superimposable.

Cx43 protein = Cx43 protein expression by stereoisomer forms (immuno-(Western) blotting, 4 days); assay type: cell-based, mouse; details: 1×10^-5 M in 1:2 ethanol/H2O, four days; vs 1:2 ethanol/H2O alone
Description: (2) Molecular Studies. […] Briefly, mouse embryonic fibroblast C3H10T1/2 cells were cultured in Eagle's basal medium with Earle's salts (Atlanta Biologicals, Atlanta, Ga.), supplemented with 5% fetal calf serum (Atlanta Biologicals, Atlanta, Ga.) and 25 μg/mL gentamicin sulfate (Sigma, St. Louis, Mo.), and incubated at 37° C. in 5% CO2. On the 7th day after seeding in 100 millimeter (mm) dishes, the confluent cells were treated for four days with the disodium salt disuccinate astaxanthin derivatives XVI and then harvested and analyzed for Cx43 protein induction as described. Protein content was measured using the Protein Assay Reagent kit (Pierce Chemical Co., Rockford, Ill.) according to manufacturer's instructions. Cell lysates containing 100 μg of protein were analyzed by Western blotting using the NuPage western blotting kit and apparatus (Invitrogen, Carlsbad, Calif.) and Cx43 protein detected using a rabbit polyclonal antibody (Zymed, San Francisco, Calif.) raised against a synthetic polypeptide corresponding to the C-terminal domain of mouse, human and rat Cx43. Cx43 immunoreactive bands were visualized by chemiluminescence using an anti-rabbit HRP-conjugated secondary antibody (Pierce Chemical Co., Rockford, Ill.). Digital images were obtained with a cooled CCD camera, and quantitative densitometry was then performed (Bio-Rad, Richmond, Calif.).

superoxide anion = assay: Superoxide anion scavenging by EPR (DEPMPO spin trap) in phorbol ester-stimulated isolated neutrophils; assay type: cell-based, human; details: for Mean (% inhibition) of superoxide anion signal: 0.1 mM; for reduction of superoxide anion signal: aqueous
Description: In an experiment, neutrophils were isolated on a Percoll gradient from whole blood from a human volunteer. The isolated neutrophils were then re-suspended in phosphate-buffered saline, and maximally stimulated with phorbol ester to induce the respiratory burst and production of superoxide anion. To the solution of activated human neutrophils, the disodium salt disuccinate astaxanthin derivative XVI was added at various concentrations, and the superoxide signal [as measured with electron paramagnetic resonance (EPR) spectroscopy] was subsequently measured. […] The disodium salt disuccinate astaxanthin derivative XVI tested at 100 μM scavenged 28% of the total signal. At 3 mM, almost no superoxide signal remained. […] In addition to reducing the superoxide anion signal important in ischemia-reperfusion injury, it is also likely that myocardial salvage can be achieved with the described carotenoid derivative, as superoxide anion plays a major role in tissue injury and death during prolonged myocardial ischemia. In a third experiment, neutrophils were again isolated on a Percoll gradient from whole blood from a second human volunteer. The isolated neutrophils were then re-suspended in phosphate-buffered saline, and maximally stimulated with phorbol ester to induce the respiratory burst and production of superoxide anion. […] Astaxanthin 2E was dissolved in HPLC grade dimethylsulfoxide (DMSO; Sigma-Aldrich, St. Louis, Mo.). The disodium disuccinate derivatives XVI of astaxanthin 2E were tested separately in […] formulations: statistical mixture of stereoisomers (as for astaxanthin, above, a 1:2:1 mixture of all-E; labeled as “mixture” in all tables and figures); 3S,3'S, and 3R,3'R (optical isomers or enantiomers); and meso (mixture of identical 3S,3'R and 3'S,3R; diastereomers of the enantiomeric pair). […] The disuccinate derivatives were first tested at the appropriate final concentrations in pure aqueous solution (deionized water) from stock solutions of 10 mM. Each of the four disuccinate derivatives were then tested from stock solutions prepared in a 1:2 mixture of ethanol (final concentration of EtOH in stock solution 331⁄3%; final concentration in isolated neutrophil assay 0.3%; HPLC grade ethanol, Sigma-Aldrich, St. Louis, Mo.) at 10 mM. […] Metaphore® Pharmaceuticals, Inc., St. Louis, Mo.) were also performed. Human polymorphonuclear leukocytes (PMNs) were isolated from freshly sampled venous blood of a single volunteer by Percoll density gradient centrifugation, which yielded PMNs with a purity of >95%. Each 10 mL of whole blood was mixed with 0.8 mL of 0.1 M EDTA and 25 mL of saline. The diluted blood was layered over 9 mL of Percoll at a specific density of 1.080 g/mL. After centrifugation at 400×g for 20 min at 20° C., the plasma, mononuclear cell, and Percoll layers were removed. Erythrocytes were lysed by addition of 18 mL of ice-cold water for 30 s, followed by 2 mL of 10× PIPES buffer (25 mM PIPES, 110 mM NaCl, and 5 mM KCl, titrated to pH 7.4 with NaOH). Cells were pelleted at 4° C., the supernatant was decanted, and the procedure was repeated. After the second hypotonic lysis, cells were washed twice with PAG buffer (PIPES buffer containing 0.003% human serum albumin and 0.1% glucose). Afterward, PMNs were counted by light microscopy on a hemocytometer. The final pellet was then suspended in PAG-CM buffer (PAG buffer with 1 mM CaCl2 and 1 mM MgCl2). All EPR measurements were performed using a Bruker ER 300 EPR spectrometer operating at X-band with a TM110 cavity. The microwave frequency was measured with a Model 575 microwave counter (EIP Microwave, Inc., San Jose, Calif.). To measure O^ -2 generation from phorbol-ester (PMA)-stimulated PMNs, EPR spin-trapping studies were performed using DEPMPO (Oxis, Portland, Oreg.) at 10 mM. 1×10^6 PMNs were stimulated with PMA (1 ng/mL) and loaded into capillary tubes for EPR measurements. […]

[2] = target: human serum albumin (HSA) (Homo sapiens, UniProt P02768)
human serum albumin (HSA), sequence (P02768 25-609): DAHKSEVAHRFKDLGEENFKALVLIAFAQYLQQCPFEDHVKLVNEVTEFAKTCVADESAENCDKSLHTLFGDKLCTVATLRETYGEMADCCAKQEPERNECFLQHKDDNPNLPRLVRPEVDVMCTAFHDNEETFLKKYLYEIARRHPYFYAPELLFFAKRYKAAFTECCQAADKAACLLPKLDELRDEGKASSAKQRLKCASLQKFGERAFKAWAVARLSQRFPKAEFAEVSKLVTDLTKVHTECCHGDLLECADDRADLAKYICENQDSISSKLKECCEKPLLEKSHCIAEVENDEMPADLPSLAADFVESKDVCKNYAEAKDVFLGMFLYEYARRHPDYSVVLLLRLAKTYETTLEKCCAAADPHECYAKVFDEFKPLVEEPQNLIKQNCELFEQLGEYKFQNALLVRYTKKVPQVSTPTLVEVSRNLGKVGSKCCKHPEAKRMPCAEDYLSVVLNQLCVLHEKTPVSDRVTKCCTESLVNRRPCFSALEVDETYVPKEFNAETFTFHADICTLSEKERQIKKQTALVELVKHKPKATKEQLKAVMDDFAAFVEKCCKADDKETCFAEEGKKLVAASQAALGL
Description: For spectroscopic sample preparation, HSA was dissolved in pH 7.4 Ringer or 0.1 M pH 7.4 phosphate buffer solutions. Albumin concentration was calculated with the value of E1cm^1%=5.31, using experimentally obtained absorbance data at 279 nm. The molecular weight of HSA was defined as 66500 Da.
CD and UV spectra were recorded on a Jasco J-715 spectropolarimeter at 25±0.2 and 37±0.2° C. in a rectangular cuvette with 1 cm pathlength. Temperature control was provided by a Peltier thermostat equipped with magnetic stirring. All spectra were accumulated three times with a bandwidth of 1.0 nm and a resolution of 0.5 nm at a scan speed of 100 nm/min. Induced CD was defined as the CD of the dAST XVI-HSA mixture minus the CD of HSA alone at the same wavelengths, and is expressed as ellipticity in millidegrees (mdeg).
Ringer buffer, I/P values from 0.007 to 0.10: 2 mL of 1.6×10^−4 M HSA solution was placed in the cuvette with 1 cm optical pathlength and small amounts of the ligand stock solution (c=2.2×10^−4) were added with an automatic pipette in 10 μL aliquots. Ringer buffer, L/P values from 0.82 to 13.13: 2 ml of 2.3×10^−6 M HSA solution was placed in the cuvette with 1 cm optical pathlength and μL volumes of the ligand stock solution (c=3.9×10^−4) were added with an automatic pipette. Phosphate buffer, L/P values from 0.82 to 13.10: 2 mL of 2.2×10^−6 M HSA solution was placed in the cuvette with 1 cm optical pathlength and μL volumes of the ligand stock solution (c=3.6×10^−4) were added with an automatic pipette.
2 mL of 4.2×10^−6 M HSA solution was prepared in a 1 cm rectangular cell in 0.1 M pH 7.4 phosphate buffer. […] Total fluorescence intensity was collected at each wavelength with a Hamamatsu H5784-type photomultiplier detector mounted on a right angle to the light source. […] A control experiment was also performed, in which the fluorescence of HSA during addition of 20, 50 and 100 μL DMSO to the solution was measured.

[3] = Determination of water solubility; assay type: physicochemical
Description: A total of 30 mg of sample (disodium disuccinate astaxanthin derivative, as the all-trans mixture of stereoisomers 3S,3′S, meso, and 3R,3′R in a 1:2:1 ratio) was added to 2 mL of sterile-filtered ([…] Millipore®) deionized (DI) water in a 15 mL glass centrifuge tube. The tube was wrapped in aluminum foil and the mixture was shaken for 2 hours, then centrifuged at 3500 rpm for 10 minutes. The aqueous solution was filtered through a 0.45 micron PVDF disposable filter device. A 1 mL volume of filtrate was then diluted appropriately with DI water, and the concentration of the solution was measured at 480 nm using a four point calibration curve prepared from fresh sample.

SMILES: CC1=C(/C=C/C(C)=C/C=C/C(C)=C/C=C/C=C(C)/C=C/C=C(C)/C=C/C2=C(C)C(=O)C(OC(=O)CCC(=O)O)CC2(C)C)C(C)(C)CC(OC(=O)CCC(=O)O)C1=O (stereo not drawn) [XV, Succinic Acid mono-(4-{18-[4-(3-carboxy-propionyloxy)-2,6,6-trimethyl-3-oxo-cyclohex-1-enyl]-3,7,12,16-tetramethyl-octadeca-1,3,5,7,9,11,13,15,17-nonaenyl}-3,5,5-trimethyl-2-oxo-cyclohex-3-enyl) ester]
- stability of the carotenoid cation radical (car.+) [1]: stable within this time frame
- time after which half of the 3car (carotenoid triplet) has disappeared ([1]; acetonitrile, sensitizer NN): 15 μs
- time after which no 3car (carotenoid triplet) is left ([1]; acetonitrile, sensitizer NN): 50 μs
- behavior as radical quencher compared with non-esterified, free astaxanthin ([1]; acetonitrile, sensitizer NN): behaves like asta 2E
- behavior as radical quencher compared with non-esterified, free astaxanthin ([1]; acetonitrile, sensitizer NN, listed as astaCOOH): identically to non-esterified, free racemic astaxanthin

SMILES: CC1=C(/C=C/C(C)=C/C=C/C(C)=C/C=C/C=C(C)/C=C/C=C(C)/C=C/C2=C(C)C(=O)[C@H](OC(=O)CCC(=O)[O-])CC2(C)C)C(C)(C)C[C@H](OC(=O)CCC(=O)[O-])C1=O.[Na+].[Na+] [Meso, disodium salt disuccinate derivative XVI (dAST) of synthetic meso-astaxanthin (3R,3′S-dihydroxy-β,β-carotene-4,4′-dione)]
- expression of Cx43 protein (Cx43 protein): increase expression of Cx43 protein
- Mean (% inhibition) of superoxide anion signal (superoxide anion; Solvent EtOH (1:2 EtOH/water stock, 0.3% final)): 42.5%
- Mean (% inhibition) of superoxide anion signal (superoxide anion; Solvent Water): 15.7%
- quenching of the intrinsic fluorescence of HSA ([2]; 0.1 M pH 7.4 phosphate buffer, 37° C.): able to effectively quench the intrinsic fluorescence of HSA
- decrease of baseline fluorescence intensity of HSA ([2]; L/P ratio of 0.7, 0.1 M pH 7.4 phosphate buffer, 37° C.): 50%
- mode of binding to HSA ([2]; low ligand/protein molar ratios, pH 7.4 Ringer buffer): monomeric form

SMILES: CC(C=CC=C(C)C=CC1=C(C)C(=O)C(OC(=O)CCC(=O)OCC(O)C2OC(=O)C(O)=C2O)CC1(C)C)=CC=CC=C(C)C=CC=C(C)C=CC1=C(C)C(=O)C(OC(=O)CCC(=O)OCC(O)C2OC(=O)C(O)=C2O)CC1(C)C (stereo not drawn) [XXIII, Succinic acid 4-[18-(4-{3-[2-(3,4-dihydroxy-5-oxo-2,5-dihydrofuran-2-yl)-2-hydroxy-ethoxycarbonyl]-propionyloxy}-2,6,6-trimethyl-2-oxo-cyclohex-1-enyl)-3,7,12,16-tetramethyl-octadeca-1,3,5,7,9,11,13,15,17-nonaenyl]-3,5,5-trimethyl-2-oxo-cyclohex-3-enyl ester 2-(3,4-dihydroxy-5-oxo-2,5-dihydrofuran-2-yl)-2-hydroxy-ethyl ester]
- water solubility [3]: highly water soluble
- increase in radical scavenging potency over the disodium disuccinate astaxanthin derivative (XVI) (superoxide anion): 50 fold
- inhibition of superoxide anion signal (superoxide anion; 60 μM, without a co-solvent): nearly complete inhibition
- concentration at which complete suppression of the superoxide anion signal was achieved (superoxide anion; activated human neutrophils, EPR): 60 µM

SMILES: CC1=C(/C=C/C(C)=C/C=C/C(C)=C/C=C/C=C(C)/C=C/C=C(C)/C=C/C2=C(C)C(=O)C(OC(=O)C(N)CCCCN)CC2(C)C)C(C)(C)CC(OC(=O)C(N)CCCCN)C1=O.Cl.Cl.Cl (stereo not drawn) [XX, Tetrahydrochloride Salt of the Dilysinate Ester of Astaxanthin]
- solubility at 2 h ([3]; deionized water, water, thermodynamic from solid, pure aqueous formulation): > 50 mg/mL
- reduction of superoxide anion signal (superoxide anion; 1 μM): approximately 5%
- reduction of superoxide anion signal (superoxide anion; 3 mM): 98%
